According to ChEMBL document CHEMBL3046484, “Fumigant toxicity of lemon eucalyptus oil constituents to acaricide-susceptible and acaricide-resistant Tetranychus urticae” (2011):

Assays:
Type in all cases: functional
Tetranychus urticae [1] = experiment: Insecticidal activity against acaricide-susceptible female Tetranychus urticae KST (two-spotted spider mite) in kidney bean assessed as mortality in 3 cm disks measured after 24 hr exposure by vapour-phase mortality bioassay
Tetranychus urticae [2] = experiment: Insecticidal activity against chlorfenapyr-resistant female Tetranychus urticae CRT-53 (two-spotted spider mite) in kidney bean assessed as mortality in 3 cm disks measured after 24 hr exposure by vapour-phase mortality bioassay
Tetranychus urticae [3] = experiment: Insecticidal activity against abamectin-resistant female Tetranychus urticae ART-53 (two-spotted spider mite) in kidney bean assessed as mortality in 3 cm disks measured after 24 hr exposure by vapour-phase mortality bioassay
Tetranychus urticae [4] = experiment: Insecticidal activity against pyridaben-resistant female Tetranychus urticae PRT-53 (two-spotted spider mite) in kidney bean assessed as mortality in 3 cm disks measured after 24 hr exposure by vapour-phase mortality bioassay
Tetranychus urticae [5] = experiment: Insecticidal activity against fenpropathrin-resistant female Tetranychus urticae FRT-53 (two-spotted spider mite) in kidney bean assessed as mortality in 3 cm disks measured after 24 hr exposure by vapour-phase mortality bioassay

Compound	LC50 (Tetranychus urticae [1]) [microg/cm3]	LC50 (Tetranychus urticae [2]) [microg/cm3]	LC50 (Tetranychus urticae [3]) [microg/cm3]	LC50 (Tetranychus urticae [4]) [microg/cm3]	LC50 (Tetranychus urticae [5]) [microg/cm3]
C=C[C@]1(C)CC[C@@H](C(C)(C)O)O1 [(E)-LINALOOL OXIDE]	>500	–	–	–	–
C=C1CC[C@@H]2[C@@H]([C@@H]3[C@H](C)CC[C@@H]13)C2(C)C [(+)-AROMADENDRENE]	>500	–	–	–	–
CC(C)=CCCC(C)CCO (centres undefined) [CITRONELLOL]	21.7	26.1	26	25.9	21.4
CC12CCC(CC1)C(C)(C)O2 [EUCALYPTOL]	275	298.4	256.3	263.7	249
C=C(C)[C@H]1CC=C(C)CC1 [D-LIMONENE]	246.7	333.3	277.6	288.5	284.3
Cc1ccc(C(C)C)cc1 [P-CYMENE]	231.4	213.5	265.2	243.3	238.9
C=C/C(C)=C/CC=C(C)C [OCIMENE]	255	277.2	281.3	260.2	289.6
C=CC(C)(O)CCC=C(C)C (centres undefined) [LINALOOL]	54.6	58.9	62.4	55	57.3
CC1(C)C2CCC1(C)C(O)C2 (centres undefined) [BORNEOL]	>500	–	–	–	–
CC(=O)OC/C=C(\C)CCC=C(C)C [GERANYL ACETATE]	24.5	25.3	24	24.5	26.7
C=C1CC[C@H]2O[C@]2(C)CC[C@@H]2[C@@H]1CC2(C)C [(-)-CARYOPHYLLENE OXIDE]	>500	–	–	–	–
CC(C)=CCC[C@@H](C)CC=O [CITRONELLAL]	33.9	34.8	34.9	34.9	34
CC(=O)OCCC(C)CCC=C(C)C (centres undefined) [CITRONELLYL ACETATE]	16.8	16.7	12.8	17.4	16.5
CC1CCC(C(C)C)C(O)C1 (centres undefined) [MENTHOL]	12.9	13	13.7	12.9	12.8
CC(C)=CCC/C(C)=C/CO [GERANIOL]	32.1	32	33.3	33.2	26.8
C=C1CC/C=C(\C)CC[C@@H]2[C@@H]1CC2(C)C [BETA-CARYOPHYLLENE]	47.6	49.1	53.4	44.7	47.7
CC1=CC[C@@](O)(C(C)C)CC1	36.9	36.7	38.7	43.7	40.8
C=CCc1ccc(O)c(OC)c1 [EUGENOL]	24.6	25.9	27.8	31.7	28.6
C=C(C)[C@@H]1CC[C@@H](C)C[C@H]1O [ISOPULEGOL]	30.3	30.7	29	27.7	30.1
CC1=CC=C(C(C)C)CC1	260	293.9	277.5	253.2	263.3
C=CC(=C)CCC=C(C)C [MYRCENE]	349.8	370.6	384.2	377.4	369.3
CC1=CC[C@H](C(C)C)C=C1	299.7	380.1	354.7	340.7	360.6
